In patent US7354711B2, “Methods for inhibiting immunostimulatory DNA associated responses” (University of Iowa Research Foundation, priority 1997, dated 2008):

Test system: WEHI 231 cells
Assay: Inhibition of CpG-ODN 1760 protection against α-sIgM-induced inhibition of [3H] thymidine uptake
Type: cell-based, mouse
Conditions: for vs. Chloroquine, fold / Activity,-log10 (concentration (M) for half maximal inhibition of CpG-ODN effect on [3H] thymidine uptake in the presence of α-sIgM): Table 3, 9-aminoacridines; for Activity,-log10 (concentration (M) for half maximal inhibition of CpG-ODN effect on [3H] thymidine uptake in the presence of α-sIgM) / Activity: -log10 of the concentration (M) required for half maximal inhibition of CpG-ODN effect on [3H] thymidine uptake in the presence of α-sIgM: WEHI 231 cells; for Fold: activity expressed as a fraction of activity of chloroquine / Activity: -log10 of the concentration (M) required for half maximal inhibition of CpG-ODN effect on [3H] thymidine uptake in the presence of α-sIgM: Table 2, 4-aminoquinolines; for Effect on CpG-ODN action (FIG. 1): at concentrations less than 10 μM
Experimental: The assay of [^3H] Thymidine incorporation was carried out as follows. WEHI 231 cells (200 μL at 2×10^5/milliliter, in duplicate or triplicate) were incubated in a 96-well plate (Costar, Cambridge Mass.). Additions were made as indicated. After incubating for 16 hours, 0.5 μCi [methyl-^3H] thymidine (2 Ci/millimole, DuPont NEN, Boston Mass.) was added to each well, and the cells were incubated for another 4 hours. Cellular DNA was then captured onto glass fiber filters (Whatman 934AH) using a cell harvester (Brandel, Gaithersberg Md.). The filters were dried, placed into plastic scintillation vials with 10 milliliters of scintillation cocktail (EconoSafe, Research Products International, Mount Prospect Ill.), and counted in a liquid scintillation counter (Beckman LS-3133 T). The ^3H recovered on the filter was expressed as a fraction of the ^3H added.
Referring to experiments summarized in FIG. 1, WEHI 231 cells (ca. 2×10^5 per milliliter) were incubated for 16 hours at 37° C. with 10 μgrams/milliliter α-sIgM, 6 μgrams/milliliter ODN 1760, and the indicated concentration of the compound. After 16 hours, 0.5 μCi [^3H] thymidine was added. After 4 more hours incubation, the cellular DNA was harvested onto glass fiber filters. The dry filters were counted in a liquid scintillation counter.
Each experimental point was the mean of at least duplicate measurements.
Referring to the experiments summarized in FIG. 3, 10 μgrams/milliliter α-sIgM and the indicated concentrations of ODN 1760 and quinacrine were added simultaneously to WEHI 231 cells. Thymidine incorporation was estimated at 16 hours as described for Example 1.
Referring to the experiments summarized in FIG. 4, WEHI 231 cells were incubated with α-sIgM and ODN 1760. At times thereafter 0.1 μM quinacrine was added (data shown in the left three bars). Cells were incubated with 10 μgrams/milliliter (α-sIgM and ODN 1760 (6 μgrams/milliliter, phosphorothioate or a phosphodiester ODN with the same sequence as 1760 (PD ODN) (30 μM at time 0 hours and 8 hours; data represented in right six bars in FIG. 4). [^3H] thymidine incorporation was estimated at 16 hours.
The symbol — indicates no change. Me and Et indicate —CH3 and —CH2CH3 respectively. Aromatic substituents are in the para position except as indicated. The activity is —log10 of the concentration (M) required for half maximal inhibition of CpG-ODN effect on [^3H] thymidine uptake in the presence of α-sIgM.

Compound | Fold: activity expressed as a fraction of activity of chloroquine [fold] | Activity: -log10 of the concentration (M) required for half maximal inhibition of CpG-ODN effect on [3H] thymidine uptake in the presence of α-sIgM | other results
CCN(CC)CCCC(Nc1c2ccc(Cl)cc2nc2ccc(OC)cc12)c1ccc(Cl)cc1 (stereo not drawn) [compound 28] | – | – | vs. Chloroquine, fold: 1.82 fold; Activity,-log10 (concentration (M) for half maximal inhibition of CpG-ODN effect on [3H] thymidine uptake in the presence of α-sIgM): 7.22
CCN(CC)CCCC(Nc1c2ccc(Cl)cc2nc2ccc(OC)cc12)c1cccc2ccccc12 (stereo not drawn) [compound 29] | – | – | vs. Chloroquine, fold: 1.91 fold; Activity,-log10 (concentration (M) for half maximal inhibition of CpG-ODN effect on [3H] thymidine uptake in the presence of α-sIgM): 7.24
CCN(CC)CCCC(Nc1c2ccc(Cl)cc2nc2ccc(OC)cc12)c1ccc(OC)cc1 (stereo not drawn) [compound 30] | – | – | vs. Chloroquine, fold: 2.09 fold; Activity,-log10 (concentration (M) for half maximal inhibition of CpG-ODN effect on [3H] thymidine uptake in the presence of α-sIgM): 7.28
CCN(CC)CCCC(C)Nc1c(C)cnc2cc(Cl)c(C)cc12 (stereo not drawn) [compound 32] | 2.57 | 7.37 | –
CCN(CC)CCCC(CNc1ccnc2cc(Cl)ccc12)c1ccc(Cl)cc1 (stereo not drawn) [compound 33] | 2.95 | 7.43 | –
CCN(CC)CC(CNc1ccnc2cc(Cl)ccc12)c1ccc(OC)cc1 (stereo not drawn) [compound 34] | 5.04 | 7.66 | –
CCN(CC)CCCCNc1c(C)cnc2cc(Cl)ccc12 [compound 35] | 0.81 | 6.87 | –
CCN(CC)CCCC(C)Nc1ccnc2cc(C)ccc12 (stereo not drawn) [compound 37] | 0.03 | 5.50 | –
CCN(CC)CCCC(C)Nc1c(C)c(C)nc2ccccc12 (stereo not drawn) [compound 39] | 0.04 | 5.58 | –
CCN(CC)CCCC(C)Nc1c(C)cnc2cccc(C)c12 (stereo not drawn) [compound 40] | 0.23 | 6.32 | –
CCN(CC)CCCC(C)Nc1c(C)cnc2cc(OC)ccc12 (stereo not drawn) [compound 41] | 0.28 | 6.64 | –
CCN(CC)CCCC(C)Nc1ccnc2ccc(Oc3ccccc3)cc12 (stereo not drawn) [compound 42] | 1.48 | 7.13 | –
CCN(CC)CCCC(C)Nc1ccnc2cc(Cl)c(SCc3ccccc3)cc12 (stereo not drawn) [compound 43] | 4.57 | 7.62 | –
CCN(CC)CCCC(C)Nc1cc(-c2ccccc2)nc2cc(OC)ccc12 (stereo not drawn) [compound 44] | 3.63 | 7.52 | –
CCN(CC)CCCC(C)Nc1c(C)cnc2cc(Cl)c(C)cc12 (stereo not drawn) [compound 46] | 0.21 | 6.28 | –
OC1CCCC1Nc1ccnc2cc(Cl)ccc12 (stereo not drawn) [compound 47] | 0.02 | 5.25 | –
CCN(CC)CCCC(C)Nc1cc(-c2ccccc2)nc2cc(Cl)ccc12 (stereo not drawn) [compound 48] | 2.14 | 7.29 | –

Compound | Fold: activity expressed as a fraction of activity of chloroquine [fold] | Activity: -log10 of the concentration (M) required for half maximal inhibition of CpG-ODN effect on [3H] thymidine uptake in the presence of α-sIgM | other results
CCN(CC)CCCC(C)Nc1ccnc2cc(Oc3ccccc3)ccc12 (stereo not drawn) [compound 50] | 0.74 | 6.83 | –
CCN(CC)CCCC(C)Nc1ccnc2ccc(-c3ccccc3)cc12 (stereo not drawn) [compound 51] | 1.62 | 7.17 | –
CCN(CC)CC=CC(C)Nc1ccnc2cc(Cl)ccc12 (stereo not drawn) [compound 53] | 0.81 | 6.87 | –
CCN(CC)CCCC(CCl)Nc1ccnc2cc(Cl)ccc12 (stereo not drawn) [compound 56] | 1.45 | 7.12 | –
COc1ccc2nc3cc(Cl)ccc3c(NCCCNCCCCNCCCNc3c4ccc(Cl)cc4nc4ccc(OC)cc34)c2c1 [compound 58, bis-(6-chloro-2-methoxy-9-acridinyl)spermine] | – | – | vs. Chloroquine, fold: 0.26 fold; Activity,-log10 (concentration (M) for half maximal inhibition of CpG-ODN effect on [3H] thymidine uptake in the presence of α-sIgM): 6.38
COc1ccc2nc3cc(Cl)ccc3c(N)c2c1 [compound 59, 9-amino-6-chloro-2-methoxyacridine] | – | – | vs. Chloroquine, fold: 1.00 fold; Activity,-log10 (concentration (M) for half maximal inhibition of CpG-ODN effect on [3H] thymidine uptake in the presence of α-sIgM): 6.96
CCN(CC)CCC(CNc1ccnc2cc(Cl)ccc12)c1ccc(OC)cc1 (stereo not drawn) [compound 61] | 0.79 | 6.86 | –
CCN(CC)CCCC(C)Nc1c(C)cnc2cccc(Br)c12 (stereo not drawn) [compound 62] | 0.35 | 6.51 | –
CCN(CC)CCCC(C)Nc1c(C)cnc2c(OC)c(Cl)ccc12 (stereo not drawn) [compound 63] | 0.10 | 5.95 | –
CCN(CC)CCCC(C)Nc1ccnc2cc(Oc3ccccc3)ccc12 (stereo not drawn) [compound 64] | 0.62 | 6.75 | –
CCN(CC)CCC(CNc1c(C)cnc2cc(Cl)ccc12)c1ccc(Cl)c(Cl)c1 (stereo not drawn) [compound 65] | 0.58 | 6.72 | –
CN(C)C(C)(C)CCCNc1ccnc2cc(Cl)ccc12 [compound 68] | 0.81 | 6.87 | –
CCOc1cc2c(NC(C)CCCN(CC)CC)c(C)cnc2cc1Cl (stereo not drawn) [compound 71] | 0.09 | 5.90 | –
CCN(CCO)CCCC(C)Nc1ccnc2cc(Cl)ccc12 (stereo not drawn) [hydroxychloroquine, reference compound] | – | – | Inhibition of the CpG-ODN effect (FIG. 1) (at nanomolar concentrations, 10 μg/mL α-sIgM, 6 μg/mL ODN 1760): completely inhibited
COc1cc(NC(C)CCCN)c2ncccc2c1 (stereo not drawn) [primaquine, reference compound] | – | – | Effect on CpG-ODN action (FIG. 1): little effect
C=C[C@H]1C[N@@]2CC[C@H]1C[C@H]2[C@H](O)c1ccnc2ccc(OC)cc12 [quinine, reference compound] | – | – | Effect on CpG-ODN action (FIG. 1): little effect
